The values below come from patent publication US20220153746A1, “NITROGEN OXIDE-DONATING PDE-5 AND/OR PDE-6 INHIBITOR COMPOUNDS, AND USES THEREOF” (ILDONG PHARMACEUTICAL CO., LTD., priority 2020, published 2022).

Series [1] in a line: Plasma protein binding assay (equilibrium dialysis). In kind it is in vitro ADME. Particulars: human plasma, dialysis 4 hours at 37° C. The method, then:
(§1) The dialysis device used in this example is a 96-well equilibrium dialysis plate (Cat #1006, HT Dialysis LLC, Gales Gerry, CT), and HTD 96 a/b dialysis membrane strips (Cat #1101, MWCO 12-14 kDa, HT Dialysis LLC). The dialysis device was assembled following the manufacturer's instructions.
(§2) The dialysis membrane strips were soaked in ultra-pure water at room temperature for approximately 1 hour. Each membrane strip containing 2 membranes was separated and soaked in 20:80 ethanol/water (v/v) for approximately 20 minutes, after which they were ready for used or were stored in the solution at 2-8° C. for up to a month. Prior to experiment, the membrane was rinsed and soaked for 20 minutes in ultra-pure water.
(§3) On the day of the experiment, the plasma was thawed by running under col tap water and centrifuged at 3220 rpm for 5 minutes to remove any clos. The pH value of the resulting plasma was checked. Only plasma with pH value with 7.0-8.0 could be used.
(§4) Both test and control compounds were dissolved in DMSO to achieve 10 mM stock solutions. Working solutions (400 μM) if test and control compounds were prepared by diluting 10μ of stock solutions with 240 μL of DMSO. Loading matrix solutions (2 μM) of both test and control compounds were prepared by diluting 5 μL of working solutions with 995 μL of blank matrix.
(§5) To prepare the loading matrix containing the test compound or control compounds, aliquots of either test compound working solutions or control compound working solution were spiked into blank matrix to achieve final test concentrations. The concentration of organic solvent in the final solutions were no more than 1% (normally 0.5%). The samples were mixture thoroughly before being used.
(§6) To prepare the time zero (T0) samples to be used for recovery determinations. 50 μL aliquots of loading matrix solution were transferred in triplicate to the sample collection plate. The samples were immediately matched with opposite blank buffer to obtain a final volume of 100 μL of 1:1 matrix/dialysis buffer (v/v) in each well. 500 μL of stop solution were added to these T0 samples. They were then stored at 2-8° C. pending further processes along with other post-dialysis samples.
(§7) To load the dialysis device, an aliquot of 150 μL of the loading matrix was transferred to the donor side of each dialysis well in triplicate, and 150 μL of the dialysis buffer was loaded to the received side of the well. The dialysis was placed in humidified incubator at 37° C. with 5% CO2 on a shaking platform that rated slowly (about 100 rpm) for 4 hours.
(§8) At the end of the dialysis, aliquots of 50 μL of samples were taken from both the buffer side and the matrix side of the dialysis deice. These samples were transferred into new 96-well plates (the sample collection plates). Each sample was mixed with an equal volume of opposite blank matrix (buffer or matrix) to reach a final volume of 100 μL of 1:1 matrix/dialysis buffer (v/v) in each well. All samples were further processed by adding 500 μL of stop solution containing internal standards. The mixture was vortexed and centrifuged at 4000 rpm for about 20 minutes. An aliquot of 100 μL of supernatant of all the samples were then removed for LC-MS/MS analysis.
(§9) The single blank samples were prepared by transferring 50 μL of blank matrix to a 96 well plate and adding 50 μL of blank PBS buffer to each well. The blank plasma must match the species of plasma used in the plasma side of the well. Then the matrix-matched samples were further processed by adding 500 μL of stop solution containing internal standards, following the same sample processing method as the dialysis samples.
For orientation: In equilibrium dialysis only unbound substance equilibrates across the membrane.

The subject of a further series is human plasma proteins. The series is described as above. In kind it is in vitro ADME. Particulars: 2 μM, dialysis 4 hours at 37° C. On the procedure:
as §1, §2, §3, §4, §5, §6, §7, §8, §9

A short description of series [2]: Metabolic stability in human liver microsomes. Particulars: 37° C., 0-60 minutes. It is filed as in vitro ADME. On the procedure:
This example illustrates the metabolic stability of selected compounds in human liver microsomes samples.
Both test and control compound solutions were prepared by diluting 5 μL of the respective stock solutions (10 mM in DMSO) containing either the test or control compound with 495 μL of acetonitrile (ACN) to give intermediate solutions with concentrations of 100 μM (99% ACN).
β-Nicotinamide adenine dinucleotide phosphate tetrasodium salt (NADPH.4Na) was purchased from BONTAC (cat. No. BT04). The NADPH working solution (10 unit/mL) was prepared by combining the appropriate amount of NADPH powder and a MgCl2 solution (10 mM) to give final concentration in the reaction system of 1 unit/mL.
The appropriate concentrations of the microsome working solutions were prepared in 100 mM potassium phosphate buffer.
Cold (4° C.) acetonitrile solution containing 200 ng/mL tolbutamide and 200 ng/mL labetalol (internal standard) was used as the stop solution.
Liver microsomes solution was diluted to 0.56 mg/mL in 100 mM phosphate buffer, and 445 μL of this solution was transferred into pre-warmed (10 minutes) “incubation” plates T60 and NCF60; the “incubation” plates T60 and NCF60 were pre-warmed for 10 minutes at 37° C. with constant shaking.
54 μL of the liver microsome solutions was transferred to the blank plate, followed by addition of 6 μL of the NAPDH cofactor solution and 180 μL of the quenching solution to the same blank plate.
5 μL of the compound working solution (100 μM concentration) was next added to into the “incubation” plates (T60 and NCF60) containing microsomes and mixed 3 times thoroughly. For the NCF60 plate, 50 μL of the buffer solution was added, mixed 3 times thoroughly, and incubated at 37° C. for 60 minutes under constant shaking.
In the “Quenching” plate at T0 (T=0 min), 180 μL of quenching solution and 6 μL of the NAPDH cofactor solution were added, and the resulting plate was chilled to prevent evaporation.
In the T60 plate, after it was thoroughly mixed, 54 μL of the mixture was immediately transferred to the “quenching” plate for the 0-minute time point, followed by addition of 44 μL of NAPDH cofactor solution to the incubation plate (T60). The resulting mixture was then incubated at 37° C. for 60 minutes under constant shaking. At time points of 5, 10, 20, 30 and 60 minutes, 180 μL of the quenching solution was added to the “quenching” plates, followed by serial transfer of 60 μL of the mixture (per time point) from the T60 plate to the “Quenching” plates.
For the NCF60 plates, 60 μL of the sample solution was transferred from the NCF60 incubation plate to the “Quenching” plate containing quenching solution at T=60 min time point. […]

For another series, the target named is human PDE-5A1 (Homo sapiens, UniProt O76074). Kind of series: Human PDE-5A1 inhibition assay (fluorescence polarization, FAM-cGMP). It is filed as biochemical. On the technique in general: Fluorescence polarisation rises when a labelled molecule tumbles more slowly, as on binding a larger partner.
The next series has as its target human PDE-6C (Homo sapiens, UniProt P51160). Kind of series: Human PDE-6C inhibition assay (fluorescence polarization, FAM-cGMP). It is filed as biochemical.

Structures are written as SMILES. Like-named read-outs stand apart in the source and are kept apart here.

Sequence of human PDE-6C (P51160 whole entry): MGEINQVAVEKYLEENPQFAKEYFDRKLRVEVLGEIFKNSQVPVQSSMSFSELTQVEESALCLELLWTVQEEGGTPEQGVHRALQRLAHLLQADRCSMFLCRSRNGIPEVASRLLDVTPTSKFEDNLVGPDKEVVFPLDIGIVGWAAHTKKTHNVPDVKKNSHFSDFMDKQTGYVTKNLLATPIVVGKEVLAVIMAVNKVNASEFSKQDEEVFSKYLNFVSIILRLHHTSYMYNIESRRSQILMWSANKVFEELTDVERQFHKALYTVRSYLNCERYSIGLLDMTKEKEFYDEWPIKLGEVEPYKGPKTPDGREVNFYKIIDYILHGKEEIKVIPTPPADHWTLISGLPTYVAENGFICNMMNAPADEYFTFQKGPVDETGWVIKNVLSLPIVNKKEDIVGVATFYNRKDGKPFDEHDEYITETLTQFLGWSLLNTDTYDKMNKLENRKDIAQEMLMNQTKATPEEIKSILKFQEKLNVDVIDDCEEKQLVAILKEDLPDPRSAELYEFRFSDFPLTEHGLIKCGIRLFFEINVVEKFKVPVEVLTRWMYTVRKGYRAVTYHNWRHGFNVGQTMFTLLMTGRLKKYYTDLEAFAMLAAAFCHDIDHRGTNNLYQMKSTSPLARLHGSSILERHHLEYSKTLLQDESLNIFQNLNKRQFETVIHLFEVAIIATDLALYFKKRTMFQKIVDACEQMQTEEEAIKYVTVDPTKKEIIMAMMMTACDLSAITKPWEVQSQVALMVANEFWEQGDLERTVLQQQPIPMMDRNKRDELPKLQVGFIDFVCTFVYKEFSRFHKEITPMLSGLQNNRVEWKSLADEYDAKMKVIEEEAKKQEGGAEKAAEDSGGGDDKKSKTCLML

In turn, `CCCc1nn(C)c2c(=O)[nH]c(-c3cc(S(=O)(=O)N4CC(NCCCO)C4)ccc3OCC)nc12` [Compound 10, 5-(2-ethoxy-5-((3-((3-hydroxypropyl)amino)azetidin-1-yl)sulfonyl)phenyl)-1-methy-3-propyl-1,6-dihydro-7H-pyrazolo[4,3-d]pyrimidin-7-one] registered a fraction unbound at 4 h, 2 µM in series [1] of 0.138. For the same compound, the “% Bound” value with human plasma proteins is recorded as 86.19%. In series [2], this compound gave a CLint scaled at 1 µM of 55 mL/min/kg.
For `CCCc1nn(C)c2c(=O)[nH]c(-c3cc(S(=O)(=O)N4CC(NCCCO[N+](=O)[O-])C4)ccc3OCC)nc12` [Compound 22, 3-((1-((4-ethoxy-3-(1-methyl-7-oxo-3-propyl-6,7-dihydro-1H-pyrazolo[4,3-d]pyrimidin-5-yl)phenyl)sulfonyl)azetidin-3-yl)amino)propyl nitrate], the IC50 at human PDE-5A1 (read-out: IC50 (μM) PDE5A1) and on human PDE-6C (read-out: IC50 (μM) PDE6C) was less than 0.01 µM throughout. This compound came in with a fraction unbound at 4 h, 2 µM in series [1] of 0.0247. Moreover, the “% Bound” value in the series on human plasma proteins was found to be 97.53%. For the same compound, in series [2], the CLint scaled at 1 µM turned out to be 358 mL/min/kg.
`CCCc1nn(C)c2c(=O)[nH]c(-c3cc(S(=O)(=O)N4CC(CCCOC(=O)CCCCO[N+](=O)[O-])C4)ccc3OCC)nc12` [Compound 71, 3-(1-((4-ethoxy-3-(1-methyl-7-oxo-3-propyl-6,7-dihydro-1H-pyrazolo[4,3-d]pyrimidin-5-yl)phenyl)sulfonyl)azetidin-3-yl)propyl 5-(nitrooxy)pentanoate]: the IC50 on human PDE-5A1 (read-out: IC50 (μM) PDE5A1) and on human PDE-6C (read-out: IC50 (μM) PDE6C) was less than 0.01 µM throughout.
On to `CCCc1nn(C)c2c(=O)[nH]c(-c3cc(S(=O)(=O)N4CC(CCCOC(=O)CCCO[N+](=O)[O-])C4)ccc3OCC)nc12` [Compound 72, 3-(1-((4-ethoxy-3-(1-methyl-7-oxo-3-propyl-6,7-dihydro-1H-pyrazolo[4,3-d]pyrimidin-5-yl)phenyl)sulfonyl)azetidin-3-yl)propyl 4-(nitrooxy)butanoate], for which the IC50 at human PDE-5A1 (read-out: IC50 (μM) PDE5A1) and on human PDE-6C (read-out: IC50 (μM) PDE6C) was less than 0.01 µM each time.
As to `CCCc1nn(C)c2c(=O)[nH]c(-c3cc(S(=O)(=O)N4CC(CCCOC(=O)CCC(CO[N+](=O)[O-])O[N+](=O)[O-])C4)ccc3OCC)nc12` (centres unmarked) [Compound 73, 3-(1-((4-ethoxy-3-(1-methyl-7-oxo-3-propyl-6,7-dihydro-1H-pyrazolo[4,3-d]pyrimidin-5-yl)phenyl)sulfonyl)azetidin-3-yl)propyl 4,5-bis(nitrooxy)pentanoate], the IC50 on human PDE-5A1 and on human PDE-6C was less than 0.01 µM throughout.

A word on the fraction unbound: it is free concentration divided by total concentration. Usually CLint scaled stands for the rate of metabolic loss divided by the concentration. Low readings indicate slow turnover, high ones rapid turnover. Usually IC50 stands for the midpoint of a concentration-inhibition curve.
